{"source": "patent US20240277713A1", "about": "(Kadmon Corporation, LLC, priority 2022, published 2024)", "key": {"patients with cGVHD": {"test_system": "patients with cGVHD", "settings": "cited from earlier work"}, "[1]": {"assay": "Toxicokinetics in pregnant New Zealand White rabbits (Example 2)", "format": "in vivo, rabbit", "settings": "GD 18", "description": "The study was conducted in two phases: Phase A was a dose range finding tolerance study with non-pregnant rabbits, and Phase B was the pilot developmental toxicity study.\nAll fetuses were given the appropriate external examination."}, "[2]": {"assay": "Toxicokinetic evaluation in pregnant rabbits (Example 4)", "format": "in vivo, rabbit", "quoted_text": "The dose levels for the treated groups were 50, 125, 225, mg base/kg/day at a dose volume of 10 mL/kg. The control group received the vehicle in the same manner as the treated groups. […] Individual doses were based on the most recent body weights.\nObservations of the animals included clinical signs, body weights, food consumption, and anatomical pathology including a uterine examination. […] All fetuses were given an external, visceral, and skeletal examination."}, "[3]": {"assay": "Toxicokinetics in pregnant Sprague-Dawley rats (Example 1)", "format": "in vivo, rat", "settings": "belumosudil 25 mg base/kg/day oral, GD 17"}, "[4]": {"assay": "Toxicokinetic analysis in rat plasma (Example 5)", "format": "in vivo", "description": "TK animals were dosed for 70 and 14 days for the males and females, respectively. Dosing of TK males and females was initiated simultaneously, continuing to euthanasia. Refrigerated daily aliquots of dosing formulations were brought to room temperature while continuously stirring for at least 30 minutes prior to dosing."}, "[5]": {"assay": "Toxicokinetic evaluation in pregnant rats (Example 3)", "format": "in vivo, rat", "from_the_text": "Animals received in-life and postmorten evaluations."}, "Solubility": {"assay": "Solubility", "format": "physicochemical", "description": "The tablet film consists of polyvinyl alcohol, polyethylene glycol, talc, titanium dioxide and yellow iron oxide. Each 200 mg tablet is a pale-yellow film-coated oblong tablet debossed with “KDM” on one side and “200” on the other side. Tablets are stored at room temperature, 20° C. to 25° C. (68° F. to 77° F.); excursions permitted from 15° C. and 30° C. (59° F. to 86° F.)."}, "[6]": {"settings": "belumosudil 50 mg base/kg/day oral"}, "[7]": {"settings": "belumosudil 250 mg base/kg/day oral"}, "[8]": {"settings": "GD 6, belumosudil 50 mg base/kg oral"}, "[9]": {"settings": "GD 6, belumosudil 125 mg base/kg oral"}, "[10]": {"settings": "GD 6, belumosudil 225 mg base/kg oral"}, "[11]": {"settings": "GD 18, belumosudil 50 mg base/kg oral"}, "[12]": {"settings": "GD 18, belumosudil 125 mg base/kg oral"}, "[13]": {"settings": "GD 18, belumosudil 225 mg base/kg oral"}, "[14]": {"settings": "Day 1, belumosudil 50 mg base/kg, F"}, "[15]": {"settings": "Day 1, belumosudil 50 mg base/kg, M"}, "[16]": {"settings": "Day 1, belumosudil 150 mg base/kg, F"}, "[17]": {"settings": "Day 1, belumosudil 150 mg base/kg, M"}, "[18]": {"settings": "Day 1, belumosudil 275 mg base/kg, F"}, "[19]": {"settings": "Day 1, belumosudil 275 mg base/kg, M"}, "[20]": {"settings": "Day 14, belumosudil 50 mg base/kg, F"}, "[21]": {"settings": "Day 14, belumosudil 150 mg base/kg, F"}, "[22]": {"settings": "Day 14, belumosudil 275 mg base/kg, F"}, "[23]": {"settings": "Day 70, belumosudil 50 mg base/kg, M"}, "[24]": {"settings": "Day 70, belumosudil 150 mg base/kg, M"}, "[25]": {"settings": "Day 70, belumosudil 275 mg base/kg, M"}, "[26]": {"settings": "GD 6, belumosudil 15 mg base/kg oral"}, "[27]": {"settings": "GD 6, belumosudil 150 mg base/kg oral"}, "[28]": {"settings": "GD 17, belumosudil 15 mg base/kg oral"}, "[29]": {"settings": "GD 17, belumosudil 50 mg base/kg oral"}, "[30]": {"settings": "GD 17, belumosudil 150 mg base/kg oral"}}, "note": "Structures can show the parent of a compound that is named as a salt.", "data": [{"smiles": "C=CC(=O)N1CCC[C@@H](n2nc(-c3ccc(Oc4ccccc4)cc3)c3c(N)ncnc32)C1", "note": "[ibrutinib]", "values": [{"measurement": "discontinuation rate because of TEAEs", "setting": "patients with cGVHD", "value": 43, "unit": "%"}]}, {"smiles": "O=C(O)COc1cccc(-c2nc(Nc3ccc4[nH]ncc4c3)c3ccccc3n2)c1", "note": "[KD025m2]", "values": [{"measurement": "maternal AUC0-24", "setting": "[1]; [6]", "value": 2990, "unit": "ng·h/mL"}, {"measurement": "maternal Cmax", "setting": "[1]; [6]", "value": 1090, "unit": "ng/mL"}, {"measurement": "maternal AUC0-24", "setting": "[1]; [7]", "value": 19700, "unit": "ng·h/mL"}, {"measurement": "maternal Cmax", "setting": "[1]; [7]", "value": 3080, "unit": "ng/mL"}, {"measurement": "Mean AUC0-24 in plasma of pregnant rabbits", "setting": "[2]; [8]", "value": 4180, "unit": "ng·h/mL"}, {"measurement": "Mean Cmax in plasma of pregnant rabbits", "setting": "[2]; [8]", "value": 1170, "unit": "ng/mL"}, {"measurement": "Mean AUC0-24 in plasma of pregnant rabbits", "setting": "[2]; [9]", "value": 13600, "unit": "ng·h/mL"}, {"measurement": "Mean Cmax in plasma of pregnant rabbits", "setting": "[2]; [9]", "value": 2180, "unit": "ng/mL"}, {"measurement": "Mean AUC0-24 in plasma of pregnant rabbits", "setting": "[2]; [10]", "value": 42400, "unit": "ng·h/mL"}, {"measurement": "Mean Cmax in plasma of pregnant rabbits", "setting": "[2]; [10]", "value": 3190, "unit": "ng/mL"}, {"measurement": "Mean AUC0-24 in plasma of pregnant rabbits", "setting": "[2]; [11]", "value": 2470, "unit": "ng·h/mL"}, {"measurement": "Mean Cmax in plasma of pregnant rabbits", "setting": "[2]; [11]", "value": 1120, "unit": "ng/mL"}, {"measurement": "Mean AUC0-24 in plasma of pregnant rabbits", "setting": "[2]; [12]", "value": 16700, "unit": "ng·h/mL"}, {"measurement": "Mean Cmax in plasma of pregnant rabbits", "setting": "[2]; [12]", "value": 3610, "unit": "ng/mL"}, {"measurement": "Mean AUC0-24 in plasma of pregnant rabbits", "setting": "[2]; [13]", "value": 41500, "unit": "ng·h/mL"}, {"measurement": "Mean Cmax in plasma of pregnant rabbits", "setting": "[2]; [13]", "value": 4620, "unit": "ng/mL"}, {"measurement": "accumulation after multiple dosing of belumosudil", "setting": "[2]; pregnant rabbits", "value": "no apparent accumulation"}, {"measurement": "maternal AUC0-24", "setting": "[3]", "value": 1480, "unit": "ng·h/mL"}, {"measurement": "maternal Cmax", "setting": "[3]", "value": 127, "unit": "ng/mL"}, {"measurement": "AUC0-24 in rat plasma", "setting": "[4]; [14]", "value": 2110, "unit": "ng·h/mL"}, {"measurement": "Cmax in rat plasma", "setting": "[4]; [14]", "value": 135, "unit": "ng/mL"}, {"measurement": "AUC0-24 in rat plasma", "setting": "[4]; [15]", "value": 5440, "unit": "ng·h/mL"}, {"measurement": "Cmax in rat plasma", "setting": "[4]; [15]", "value": 501, "unit": "ng/mL"}, {"measurement": "AUC0-24 in rat plasma", "setting": "[4]; [16]", "value": 6860, "unit": "ng·h/mL"}, {"measurement": "Cmax in rat plasma", "setting": "[4]; [16]", "value": 398, "unit": "ng/mL"}, {"measurement": "AUC0-24 in rat plasma", "setting": "[4]; [17]", "value": 13600, "unit": "ng·h/mL"}, {"measurement": "Cmax in rat plasma", "setting": "[4]; [17]", "value": 686, "unit": "ng/mL"}, {"measurement": "AUC0-24 in rat plasma", "setting": "[4]; [18]", "value": 11500, "unit": "ng·h/mL"}, {"measurement": "Cmax in rat plasma", "setting": "[4]; [18]", "value": 925, "unit": "ng/mL"}, {"measurement": "AUC0-24 in rat plasma", "setting": "[4]; [19]", "value": 21500, "unit": "ng·h/mL"}, {"measurement": "Cmax in rat plasma", "setting": "[4]; [19]", "value": 1680, "unit": "ng/mL"}, {"measurement": "AR (Accumulation Ratio) AUC0-24", "setting": "[4]; [20]", "value": 0.657}, {"measurement": "AUC0-24 in rat plasma", "setting": "[4]; [20]", "value": 1390, "unit": "ng·h/mL"}, {"measurement": "Cmax in rat plasma", "setting": "[4]; [20]", "value": 125, "unit": "ng/mL"}, {"measurement": "AR (Accumulation Ratio) AUC0-24", "setting": "[4]; [21]", "value": 1.04}, {"measurement": "AUC0-24 in rat plasma", "setting": "[4]; [21]", "value": 7110, "unit": "ng·h/mL"}, {"measurement": "Cmax in rat plasma", "setting": "[4]; [21]", "value": 523, "unit": "ng/mL"}, {"measurement": "AR (Accumulation Ratio) AUC0-24", "setting": "[4]; [22]", "value": 1.80}, {"measurement": "AUC0-24 in rat plasma", "setting": "[4]; [22]", "value": 20700, "unit": "ng·h/mL"}, {"measurement": "Cmax in rat plasma", "setting": "[4]; [22]", "value": 1480, "unit": "ng/mL"}, {"measurement": "AR (Accumulation Ratio) AUC0-24", "setting": "[4]; [23]", "value": 0.750}, {"measurement": "AUC0-24 in rat plasma", "setting": "[4]; [23]", "value": 4080, "unit": "ng·h/mL"}, {"measurement": "Cmax in rat plasma", "setting": "[4]; [23]", "value": 410, "unit": "ng/mL"}, {"measurement": "AR (Accumulation Ratio) AUC0-24", "setting": "[4]; [24]", "value": 0.701}, {"measurement": "AUC0-24 in rat plasma", "setting": "[4]; [24]", "value": 9520, "unit": "ng·h/mL"}, {"measurement": "Cmax in rat plasma", "setting": "[4]; [24]", "value": 1070, "unit": "ng/mL"}, {"measurement": "AR (Accumulation Ratio) AUC0-24", "setting": "[4]; [25]", "value": 1.35}, {"measurement": "AUC0-24 in rat plasma", "setting": "[4]; [25]", "value": 28900, "unit": "ng·h/mL"}, {"measurement": "Cmax in rat plasma", "setting": "[4]; [25]", "value": 1900, "unit": "ng/mL"}, {"measurement": "accumulation after multiple doses of belumosudil", "setting": "[4]; rats", "value": "less than 2 fold"}, {"measurement": "Mean AUC0-24 in plasma of pregnant rats", "setting": "[5]; [26]", "value": 515, "unit": "ng·h/mL"}, {"measurement": "Mean Cmax in plasma of pregnant rats", "setting": "[5]; [26]", "value": 76.2, "unit": "ng/mL"}, {"measurement": "Mean AUC0-24 in plasma of pregnant rats", "setting": "[5]; [8]", "value": 3050, "unit": "ng·h/mL"}, {"measurement": "Mean Cmax in plasma of pregnant rats", "setting": "[5]; [8]", "value": 191, "unit": "ng/mL"}, {"measurement": "Mean AUC0-24 in plasma of pregnant rats", "setting": "[5]; [27]", "value": 10500, "unit": "ng·h/mL"}, {"measurement": "Mean Cmax in plasma of pregnant rats", "setting": "[5]; [27]", "value": 519, "unit": "ng/mL"}, {"measurement": "Mean AUC0-24 in plasma of pregnant rats", "setting": "[5]; [28]", "value": 572, "unit": "ng·h/mL"}, {"measurement": "Mean Cmax in plasma of pregnant rats", "setting": "[5]; [28]", "value": 55.6, "unit": "ng/mL"}, {"measurement": "Mean AUC0-24 in plasma of pregnant rats", "setting": "[5]; [29]", "value": 3580, "unit": "ng·h/mL"}, {"measurement": "Mean Cmax in plasma of pregnant rats", "setting": "[5]; [29]", "value": 350, "unit": "ng/mL"}, {"measurement": "Mean AUC0-24 in plasma of pregnant rats", "setting": "[5]; [30]", "value": 11100, "unit": "ng·h/mL"}, {"measurement": "Mean Cmax in plasma of pregnant rats", "setting": "[5]; [30]", "value": 972, "unit": "ng/mL"}, {"measurement": "accumulation after multiple dosing of belumosudil", "setting": "[5]; pregnant rats", "value": "No apparent accumulation"}]}, {"smiles": "CC(C)NC(=O)COc1cccc(-c2nc(Nc3ccc4[nH]ncc4c3)c3ccccc3n2)c1", "note": "[Belumosudil mesylate, 2-{3-[4-(1H-indazol-5-ylamino)-2-quinazolinyl]phenoxy}-N-(propan-2-yl) acetamide methanesulfonate (1:1)]", "values": [{"measurement": "solubility in DMSO", "setting": "Solubility", "value": "soluble in DMSO"}, {"measurement": "solubility in methanol and DMF", "setting": "Solubility", "value": "slightly soluble in methanol and DMF"}, {"measurement": "solubility in water", "setting": "Solubility", "value": "practically insoluble in water"}]}]}
